4 compounds from US20250270216A1, “ANTI-INFECTIVE AGENTS” (UNIVERSITY OF DUNDEE, priority 2022, published 2025) can be followed below.

Experiment [1] deals with Hep G2 (Human hepatocyte carcinoma). The experiment in a line: In vitro inhibition of HepG2 cells (cytotoxicity). The class given is cell-based. Conditions: read-out: Hs HepG2 PEC50 (converted). An excerpt: Assay Method for Measurement of In Vitro Inhibition of HepG2 Cells (Cytotoxicity)
These experiments were run in accordance with the method of Mersch-Sundermann V et. al. Toxicology 2004, 198:329-340

For experiment [2], the target named is Cryptosporidium parvum lysyl t-RNA synthetase (Cp KRS) (Cryptosporidium parvum, UniProt Q5CR27). The experiment in a line: In vitro inhibition of Cryptosporidium lysyl tRNA synthetase (KRS), Biomol green phosphate detection. The format is biochemical. As to conditions: 300 nM CpKRS, 500 μM ATP, 1.2 mM L-Lysine, 8 h room temperature; read-out: C. parvum KRS pIC50 (converted). The source says: The protein expression and purification method for recombinant CpKRS was described in Baragana et aL, PNAS, 2019, 116 (4), 7015-7020 and will be summarised below.
Sequence of Cryptosporidium parvum lysyl t-RNA synthetase (Cp KRS) (Q5CR27 entry or part of it): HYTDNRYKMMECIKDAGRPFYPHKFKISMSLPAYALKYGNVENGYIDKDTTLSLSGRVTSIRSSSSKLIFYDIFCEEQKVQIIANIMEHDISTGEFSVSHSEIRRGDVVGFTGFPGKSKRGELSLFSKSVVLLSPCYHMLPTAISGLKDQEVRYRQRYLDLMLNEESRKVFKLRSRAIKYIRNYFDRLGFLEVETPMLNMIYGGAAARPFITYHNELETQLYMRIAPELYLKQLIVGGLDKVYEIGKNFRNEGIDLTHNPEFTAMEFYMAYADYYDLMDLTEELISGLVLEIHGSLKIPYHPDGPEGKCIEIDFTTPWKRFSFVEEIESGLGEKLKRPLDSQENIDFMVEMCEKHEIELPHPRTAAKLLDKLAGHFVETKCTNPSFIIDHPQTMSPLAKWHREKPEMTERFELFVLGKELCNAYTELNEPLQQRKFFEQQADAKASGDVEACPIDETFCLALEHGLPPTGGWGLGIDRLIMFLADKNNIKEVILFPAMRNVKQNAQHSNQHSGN
The C. parvum KRS had 45 residues removed at the N-terminus. All amplicons were cloned into the pAVA0421 expression vector using the ligation independent cloning (LIC) method. Recombinant plasmids were transformed into Rosetta BL21(DE3) competent cells and plated on LB agar plates with ampicillin, carbenicillin, and chloramphenicol selection. Clones were expressed using previously reported autoinduction methods and scaled to 2-litre cultures in a shake flasks. Cell pellets were harvested and lysed with 100 mM HEPES/150 mM NaCl/5% Glycerol/20 mM imidazole/0.5 mM TCEP pH 7.5/DNase/Complete inhibitor tablets) using a Cell Disrupter (Constant Systems) at 30 KPSI and centrifuged at 40,000 g for 20 min remove cell debris. The supernatant was loaded onto a 5 ml HiTrap Ni HP column that had been equilibrated with Buffer A (100 mM HEPES/150 mM NaCl/5% Glycerol/20 mM imidazole/0.5 mM TCEP pH 7.5) at 5 ml/min using an AKTA Pure system. Once loaded the column was washed with 10 column volumes of buffer A. A 5% step of Buffer B (100 mM HEPES/150 mM NaCl/5% Glycerol/500 mM imidazole/0.5 mM TCEP pH 7.5) was then used to wash off His-rich contaminating proteins. A linear gradient of 5-50% B was used to elute the protein. Approximately 287 mg of protein was present in the fractions containing the CpKRS protein. The sample was then concentrated to approximately 30 ml, passed through a 0.2 μm filter, before loading onto a XK26/60 Superdex 200 column using an AKTA Pure system at 4° C. at 2 ml/min 10 ml at a time. The eluted protein was pooled then frozen at −80° C. The concentration of the protein was 1.3 mg/ml. Sometimes the protein was cleaved with PreScission protease overnight, a second Ni column performed in flow through mode to removed uncleaved protein. GST beads were then added to remove the PreScission Protease. The protein was then gel filtered as descripted above.
Assay Method for Measurement of In Vitro Inhibition of Cryptosporidium lysyl tRNA Synthetase (KRS)
Potency of compounds was determined in 10 points dose-response inhibition curves. Compounds were transferred into 384-well clear bottom plates (Greiner Bio-One, 781101) using an Echo 550 acoustic dispenser (Labcyte). Using an automatic liquid dispenser, 50 μL reaction mixes were prepared by adding 25 μL of substrate mix into all wells followed by the addition of 25 μL enzyme mix into compounds and no inhibition control wells (final reaction: 100 mM HEPES, pH 7.4, 20 mM MgCl2, 1 mM DTT, 500 μM ATP, 1.2 mM L-Lysine, 300 nM CpKRS and 0.5 U/mL Pyrophosphatase). Complete inhibition control reactions were performed in the absence of enzyme and the plates were incubated at room temperature for 8 h. Reactions were stopped by the addition of Biomol green (50 μL: Enzo Life Sciences) with the amount of free phosphate detected by measuring absorbance (650 nm) after 20 min further incubation (BMG Pherastar plate reader). Counter screen assays to eliminate direct inhibition of pyrophosphatase were performed using 0.5 U/mL pyrophosphatase and 3 μM pyrophosphate as substrate in the same assay buffer (100 mM HEPES, pH 7.4, 20 mM MgCl2, 1 mM DTT) for 8 hours at room temperature. Biomol green was added and incubated for 20 min before detection as above. Samples were run in duplicate and data was processed and analysed using ActivityBase (IDBS).

For the compound `Nc1nc2c(c(C(F)(F)F)n1)C(=O)N(C[C@@H]1CCC[C@H](C(F)(F)F)C1)C2` [Compound 1, 2-amino-4-(trifluoromethyl)-6-(((1R,3S)-3-(trifluoromethyl)cyclohexyl)methyl)-6,7-dihydro-5H-pyrrolo[3,4-d]pyrimidin-5-one], the EC50 in experiment [1] was 25.1 µM. Besides, the IC50 in experiment [2] was 0.794 µM.
For `Nc1nc2c(c(C(F)(F)F)n1)C(=O)N(CC1CCCC3(CC3)C1)C2` (racemic) [Compound 4, 2-amino-6-(spiro[2.5]octan-5-ylmethyl)-4-(trifluoromethyl)-6,7-dihydro-5H-pyrrolo[3,4-d]pyrimidin-5-one] the same measures were 20 µM and 2.51 µM.
As for `Cc1nc(N)nc2c1C(=O)N(C[C@@H]1CCC[C@H](C(F)(F)F)C1)C2` [Compound 2, 2-amino-4-methyl-6-(((1R,3S)-3-(trifluoromethyl)cyclohexyl)methyl)-6,7-dihydro-5H-pyrrolo[3,4-d]pyrimidin-5-one], the EC50 in experiment [1] was 12.6 µM. Moreover, the IC50 in experiment [2] was 0.794 µM.
For `Nc1nc2c(c(C(F)F)n1)C(=O)N(C[C@@H]1CCC[C@H](C(F)(F)F)C1)C2` [Compound 3, 2-amino-4-(difluoromethyl)-6-(((1R,3S)-3-(trifluoromethyl)cyclohexyl)methyl)-6,7-dihydro-5H-pyrrolo[3,4-d]pyrimidin-5-one] the same measures were 25.1 µM and 1 µM.
